According to patent US11584714B2 (priority 2018, dated 2023):
Where two headings read alike, the source gives them in different places.

How the values were obtained:
Assay type in all cases: biochemical
[1] = biological target: mMASP-2 (Mus musculus (Mouse), UniProt Q91WP0); assay: Enzymatic inhibition of mMASP-2
[2] = biological target: MASP-2 (CCP1-CCP2-SP) (Homo sapiens (Human), UniProt O00187); assay: biochemical; conditions: for MASP-2 vs. thrombin selectivity: selectivity for MASP-2 inhibition versus thrombin
[3] = biological target: human α-thrombin (Homo sapiens (Human), UniProt P00734); assay: Enzymatic assay for thrombin (Boc-VPR-AMC substrate)

Chain of MASP-2 (CCP1-CCP2-SP) (O00187 445-686): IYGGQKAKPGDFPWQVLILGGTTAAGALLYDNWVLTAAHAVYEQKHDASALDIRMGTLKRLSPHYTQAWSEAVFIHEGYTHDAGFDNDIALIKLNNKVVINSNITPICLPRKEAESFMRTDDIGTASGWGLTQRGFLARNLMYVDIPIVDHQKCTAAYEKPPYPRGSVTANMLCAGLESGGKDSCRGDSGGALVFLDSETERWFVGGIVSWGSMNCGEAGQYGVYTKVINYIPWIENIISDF
Chain of mMASP-2 (Q91WP0 20-685): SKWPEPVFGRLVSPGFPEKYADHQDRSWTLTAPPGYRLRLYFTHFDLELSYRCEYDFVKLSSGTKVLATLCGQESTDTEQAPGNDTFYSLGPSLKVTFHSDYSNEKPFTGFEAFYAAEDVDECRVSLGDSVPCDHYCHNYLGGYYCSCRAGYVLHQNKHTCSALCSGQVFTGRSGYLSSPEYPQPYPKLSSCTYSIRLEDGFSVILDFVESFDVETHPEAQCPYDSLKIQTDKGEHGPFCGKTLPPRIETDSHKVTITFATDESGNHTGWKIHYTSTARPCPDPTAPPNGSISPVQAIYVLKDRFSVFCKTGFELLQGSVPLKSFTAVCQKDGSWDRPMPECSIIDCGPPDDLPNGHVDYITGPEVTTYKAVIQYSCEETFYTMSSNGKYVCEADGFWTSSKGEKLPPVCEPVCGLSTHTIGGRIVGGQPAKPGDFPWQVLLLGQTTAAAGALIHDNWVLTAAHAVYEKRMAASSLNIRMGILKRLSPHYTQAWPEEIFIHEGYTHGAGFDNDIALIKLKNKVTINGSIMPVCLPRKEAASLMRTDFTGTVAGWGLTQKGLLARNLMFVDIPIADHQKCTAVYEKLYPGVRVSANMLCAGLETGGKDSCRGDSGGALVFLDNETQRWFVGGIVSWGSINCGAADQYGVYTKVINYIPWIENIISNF

Structure (SMILES) | Ki ([1]; read-out: mMASP-2 Ki) | Ki ([2]; read-out: MASP-2 Ki) | MASP-2 vs. thrombin selectivity [2] | Ki ([3]; read-out: Thrombin Ki) | Ki [2] | Ki [1] | Ki ([3]; Thrombin Ki (μM))
Cc1cccc([C@H]2CN[C@@H](C(=O)N[C@@H](C)C(=O)NCc3ccc(N)nc3C)C2)c1 [compound 1257, (2R,4S)—N—((S)-1-(((6-Amino-2-methylpyridin-3-yl)methyl)amino)-1-oxopropan-2-yl)-4-(m-tolyl)pyrrolidine-2-carboxamide] | 10 to 25 µM | < 0.5 µM | *** (≥25 to <100-fold) | > 25 µM | – | – | –
C[C@H](NC(=O)[C@H](N)C/C=C/c1ccccc1)C(=O)NCc1ccc(N)nc1 [compound 1261, (R, E)-2-Amino-N—((S)-1-(((6-aminopyridin-3-yl)methyl)amino)-1-oxopropan-2-yl)-5-phenylpent-4-enamide] | 10 to 25 µM | – | * (≥1.0 to <5.0-fold) | > 25 µM | 10 to 25 µM | – | –
CCCOC(=O)NC(=N)c1ccc(CNC(=O)[C@H](C)NC(=O)[C@H]2C[C@H](c3ccccc3)CN2)cc1 [compound 1263, Propyl (imino(4-(((S)-2-((2R,4R)-4-phenylpyrrolidine-2-carboxamido)propanamido)methyl)phenyl)methyl)carbamate] | – | – | – | > 25 µM | 2.5 to 10 µM | 2.5 to 10 µM | –
CC(=O)O/N=C(\N)c1ccc(CNC(=O)[C@H](C)NC(=O)[C@H]2C[C@H](c3ccccc3)CN2)cc1 [compound 1264, (2R,4R)—N—((S)-1-((4-((Z)-N′-Acetoxycarbamimidoyl)benzyl)amino)-1-oxopropan-2-yl)-4-phenylpyrrolidine-2-carboxamide] | – | – | – | > 25 µM | 2.5 to 10 µM | 10 to 25 µM | –
Cc1nc(N)ccc1CNC(=O)[C@H](C)NC(=O)[C@H]1C[C@H](c2ccccc2)CN1 [compound 1265, (2R,4R)—N—((S)-1-(((6-Amino-2-methylpyridin-3-yl)methyl)amino)-1-oxopropan-2-yl)-4-phenylpyrrolidine-2-carboxamide] | 2.5 to 10 µM | < 0.5 µM | **** (≥100-fold) | > 25 µM | – | – | –
COc1cc(CNC(=O)[C@H](C)NC(=O)[C@H](N)CCc2ccccc2)cnc1N [compound 1266, (R)-2-Amino-N—((S)-1-(((6-amino-5-methoxypyridin-3-yl)methyl)amino)-1-oxopropan-2-yl)-4-phenylbutanamide] | > 25 µM | – | ** (≥5.0 to <25-fold) | > 25 µM | 0.5 to 2.5 µM | – | –
C[C@H](NC(=O)[C@H](N)CCc1ccccc1)C(=O)NCc1cnc(N)c(F)c1 [compound 1267, (R)-2-amino-N—((S)-1-(((6-amino-5-fluoropyridin-3-yl)methyl)amino)-1-oxopropan-2-yl)-4-phenylbutanamide] | > 25 µM | – | – | > 25 µM | 2.5 to 10 µM | – | –
C[C@H](NC(=O)[C@@H](CCc1ccccc1)NCc1ccc(C(N)=O)cc1)C(=O)NCc1ccc(C(=N)N)cc1 [compound 1268, 4-((((R)-1-(((S)-1-((4-Carbamimidoylbenzyl)amino)-1-oxopropan-2-yl)amino)-1-oxo-4-phenylbutan-2-yl)amino)methyl)benzamide] | < 0.5 µM | < 0.5 µM | * (≥1.0 to <5.0-fold) | < 0.5 µM | – | – | –
CC(=O)Nc1ccc(Cl)cc1CNC(=O)[C@H](C)NC(=O)[C@H]1C[C@H](c2ccccc2)CN1 [compound 1269, (2R,4R)—N—((S)-1-((2-Acetamido-5-chlorobenzyl)amino)-1-oxopropan-2-yl)-4-phenylpyrrolidine-2-carboxamide] | 10 to 25 µM | – | ** (≥5.0 to <25-fold) | > 25 µM | 0.5 to 2.5 µM | – | –
C[C@H](NC(=O)[C@H](N)CCc1ccccc1)C(=O)NCc1ccc(C(=N)N)nc1 [compound 1270, (R)-2-Amino-N—((S)-1-(((6-carbamimidoylpyridin-3-yl)methyl)amino)-1-oxopropan-2-yl)-4-phenylbutanamide] | < 0.5 µM | < 0.5 µM | ** (≥5.0 to <25-fold) | < 0.5 µM | – | – | –
C[C@H](NC(=O)[C@H]1C[C@@H](c2ccccc2)CCN1)C(=O)NCc1ccccc1 [compound 1271, (2R,4S)—N—((S)-1-(benzylamino)-1-oxopropan-2-yl)-4-phenylpiperidine-2-carboxamide] | > 25 µM | – | – | > 25 µM | 2.5 to 10 µM | – | –
C[C@H](NC(=O)[C@H]1C[C@H](c2ccccc2)CN1)C(=O)NCc1ccc(C(=N)N)nc1 [compound 1272, (2R,4R)—N—((S)-1-(((6-Carbamimidoylpyridin-3-yl)methyl)amino)-1-oxopropan-2-yl)-4-phenylpyrrolidine-2-carboxamide] | < 0.5 µM | < 0.5 µM | *** (≥25 to <100-fold) | – | – | – | 0.5 to 2.5 µM
C[C@H](NC(=O)[C@H]1C[C@H](c2ccccc2)CN1)C(=O)NCc1ccc(C(N)=O)nc1 [compound 1273, 5-(((S)-2-((2R,4R)-4-Phenylpyrrolidine-2-carboxamido)propanamido)methyl)picolinamide] | 10 to 25 µM | – | – | > 25 µM | 10 to 25 µM | – | –
C[C@H](NC(=O)[C@H]1C[C@H](c2ccccc2)CN1)C(=O)NCc1cc(Cl)ccc1NS(C)(=O)=O [compound 1274, (2R,4R)—N—((S)-1-((5-chloro-2-(methylsulfonamido)benzyl)amino)-1-oxopropan-2-yl)-4-phenylpyrrolidine-2-carboxamide] | 10 to 25 µM | – | ** (≥5.0 to <25-fold) | > 25 µM | 2.5 to 10 µM | – | –
C[C@H](NC(=O)[C@H](N)CCc1ccccc1)C(=O)NCc1cnc(N)c(Cl)c1 [compound 1275, (R)-2-Amino-N—((S)-1-(((6-amino-5-chloropyridin-3-yl)methyl)amino)-1-oxopropan-2-yl)-4-phenylbutanamide] | > 25 µM | – | *** (≥25 to <100-fold) | > 25 µM | 0.5 to 2.5 µM | – | –
C[C@H](NC(=O)[C@H]1C[C@@H](c2cccc(C(F)(F)F)c2)CN1)C(=O)NCc1ccc(C(=N)N)cc1 [compound 1276, (2R,4S)—N—((S)-1-((4-Carbamimidoylbenzyl)amino)-1-oxopropan-2-yl)-4-(3-(trifluoromethyl)phenyl)pyrrolidine-2-carboxamide] | < 0.5 µM | < 0.5 µM | *** (≥25 to <100-fold) | – | – | – | 0.5 to 2.5 µM
C[C@H](NC(=O)[C@H]1C[C@@H](c2cccc(CN)c2)CN1)C(=O)NCc1ccc(C(=N)N)cc1 [compound 1277, (2R,4S)-4-(3-(Aminomethyl)phenyl)-N-((S)-1-((4-carbamimidoylbenzyl)amino)-1-oxopropan-2-yl)pyrrolidine-2-carboxamide] | < 0.5 µM | < 0.5 µM | ** (≥5.0 to <25-fold) | < 0.5 µM | – | – | –
C[C@H](NC(=O)[C@H]1C[C@@H](c2cccc(C#N)c2)CN1)C(=O)NCc1ccc(C(=N)N)cc1 [compound 1278, (2R,4S)—N—((S)-1-((4-Carbamimidoylbenzyl)amino)-1-oxopropan-2-yl)-4-(3-cyanophenyl)pyrrolidine-2-carboxamide] | < 0.5 µM | < 0.5 µM | *** (≥25 to <100-fold) | – | – | – | 2.5 to 10 µM
C[C@H](NC(=O)[C@H](N)CCc1ccccc1)C(=O)NCc1cc(Br)ccc1O [compound 1279, (R)-2-amino-N—((S)-1-((5-bromo-2-hydroxybenzyl)amino)-1-oxopropan-2-yl)-4-phenylbutanamide] | > 25 µM | – | ** (≥5.0 to <25-fold) | – | 0.5 to 2.5 µM | – | 2.5 to 10 µM
